Experimental data: patent publication US20250195513A1, “DEGRADATION OF IRAK4 BY CONJUGATION OF IRAK4 INHIBITORS WITH E3 LIGASE LIGAND AND METHODS OF USE” (BeiGene, Ltd., priority 2022, published 2025)
Like-named read-outs stand apart in the source and are kept apart here.

Target: T1, IRAK4 (Homo sapiens, UniProt Q9NWZ3)
T1 construct: endogenous in cells; host or cells: Karpas299
T1 sequence (Q9NWZ3 1-460): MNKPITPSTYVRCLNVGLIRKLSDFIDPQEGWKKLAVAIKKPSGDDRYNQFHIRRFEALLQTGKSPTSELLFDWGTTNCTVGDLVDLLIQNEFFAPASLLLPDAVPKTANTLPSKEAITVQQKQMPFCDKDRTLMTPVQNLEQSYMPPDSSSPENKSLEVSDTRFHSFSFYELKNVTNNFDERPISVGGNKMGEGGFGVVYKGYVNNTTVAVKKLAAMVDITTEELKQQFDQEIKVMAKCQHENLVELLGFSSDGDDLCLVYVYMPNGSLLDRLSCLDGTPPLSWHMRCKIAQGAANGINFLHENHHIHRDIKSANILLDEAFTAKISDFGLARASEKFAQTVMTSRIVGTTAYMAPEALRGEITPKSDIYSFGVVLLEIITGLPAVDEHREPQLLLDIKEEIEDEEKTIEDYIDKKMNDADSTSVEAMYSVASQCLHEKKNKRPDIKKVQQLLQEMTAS
Assay: IRAK4 Degradation Assay (Karpas299, HTRF/TR-FRET)
Assay type: cell-based
Method in brief: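 Compound potency as DC50 (IC50) came from four-parameter fits of percent IRAK4 degradation. IRAK4 was measured by HTRF (665/620 nm) in lysates of Karpas299 cells seeded at 0.2 million per well. Cells had been treated with compound dilutions for 5 or 24 h.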

[1] = Karpas-299 cells, 24 h treatment, maximum percentage of degradation, read-out: IRAK4 in Karpas-299 (24 h) Dmax (%)
[2] = Karpas-299 cells, 24 h treatment, read-out: IRAK4 in Karpas-299 (24 h) DC50
[3] = Karpas-299 cells, 5 h treatment, maximum percentage of degradation, read-out: IRAK4 in Karpas-299 (5 h) Dmax (%)
[4] = Karpas-299 cells, 5 h treatment, read-out: IRAK4 in Karpas-299 (5 h) DC50
[5] = Degradation (Karpas-299), comparison table, Linker Type A, read-out: Compound (Linker Type A) DC50
[6] = Degradation (Karpas-299), comparison table, Linker Type A, read-out: Compound (Linker Type A) Dmax (%)

| Dmax [1] | DC50 [2] | Dmax [3] | DC50 [4] | DC50 [5] | Dmax [6] | Compound |
| --- | --- | --- | --- | --- | --- | --- |
| 94% | 1.5 nM | 78% | 2.2 nM |  |  | CC(C)(O)c1cc2nc(C3CCN(C4CN(C(=O)[C@@H]5CCN(c6cc(F)c([C@H]7CCC(=O)NC7=O)c(F)c6)C5)C4)CC3)cn2cc1NC(=O)c1cccc(C(F)(F)F)n1 [Example 50, N-(2-(1-(1-((R)-1-(4-((R)-2,6-dioxopiperidin-3-yl)-3,5-difluorophenyl)pyrrolidine-3-carbonyl)azetidin-3-yl)piperidin-4-yl)-7-(2-hydroxypropan-2-yl)imidazo[1,2-a]pyridin-6-yl)-6-(trifluoromethyl)picolinamide] |
| 91% | 4.8 nM |  |  |  |  | N#Cc1cnn2c(C(=O)Nc3cc4cn([C@H]5CC[C@H](N6CCN(C7CN(c8cc(F)c([C@H]9CCC(=O)NC9=O)c(F)c8)C7)CC6)CC5)nc4c4c3OC(F)(F)O4)ccc2c1 [Example 385, 3-cyano-N-(2-((1R,4r)-4-(4-(1-(4-((R)-2,6-dioxopiperidin-3-yl)-3,5-difluorophenyl)azetidin-3-yl)piperazin-1-yl)cyclohexyl)-7,7-difluoro-2H-[1,3]dioxolo[4,5-g]indazol-5-yl)pyrrolo[1,2-b]pyridazine-7-carboxamide] |

Continued, molecule first:

| Compound | Dmax [1] | DC50 [2] | Dmax [3] | DC50 [4] | DC50 [5] | Dmax [6] |
| --- | --- | --- | --- | --- | --- | --- |
| O=C1CC[C@H](c2c(F)cc(N3CC(C(=O)N4CCN([C@H]5CC[C@H](n6cc7cc(NC(=O)c8cccc(C(F)(F)F)n8)c(C(=O)NC8CC8)cc7n6)CC5)CC4)C3)cc2F)C(=O)N1 [Example 130] | 98% | 0.5 nM |  |  |  |  |
| O=C1CC[C@H](c2c(F)cc(N3CC(C(=O)N4CCN([C@H]5CC[C@H](n6cc(NC(=O)c7cnn(-c8ccnc(NCC(F)(F)F)c8)n7)c(C(F)F)n6)CC5)CC4)C3)cc2F)C(=O)N1 [Example 51, N-(3-(difluoromethyl)-1-((1r,4r)-4-(4-(1-(4-((R)-2,6-dioxopiperidin-3-yl)-3,5-difluorophenyl)azetidine-3-carbonyl)piperazin-1-yl)cyclohexyl)-1H-pyrazol-4-yl)-2-(2-((2,2,2-trifluoroethyl)amino)pyridin-4-yl)-2H-1,2,3-triazole-4-carboxamide] | 96% | 1.2 nM | 93% | 4.8 nM |  |  |
| CC(C)(O)c1cc2nn([C@H]3CC[C@H](N4CCN(C(=O)C5CN(c6ccc(N7CCC(=O)NC7=O)cc6)C5)CC4)CC3)cc2cc1NC(=O)c1cccc(C(F)(F)F)n1 [Example 40, N-(2-((1r,4r)-4-(4-(1-(4-(2,4-dioxotetrahydropyrimidin-1(2H)-yl)phenyl)azetidine-3-carbonyl)piperazin-1-yl)cyclohexyl)-6-(2-hydroxypropan-2-yl)-2H-indazol-5-yl)-6-(trifluoromethyl)picolinamide] | 99% | 0.9 nM | 89% | 23 nM |  |  |
| COc1cc2nn([C@H]3CC[C@H](CN4CCN(C(=O)C5CN(c6ccc(N7CCC(=O)NC7=O)cc6)C5)CC4)CC3)cc2cc1NC(=O)c1cccc(C(F)(F)F)n1 [Example 5, N-(2-((1r,4r)-4-((4-(1-(4-(2,4-dioxotetrahydropyrimidin-1(2H)-yl)phenyl)azetidine-3-carbonyl)piperazin-1-yl)methyl)cyclohexyl)-6-methoxy-2H-indazol-5-yl)-6-(trifluoromethyl)picolinamide] | 92% | 14 nM |  |  | 14 nM | 92% |
| O=C1CC[C@H](c2c(F)cc(N3CC(C(=O)N4CCN(C[C@H]5CC[C@H](n6cc(NC(=O)c7coc(-c8ccnc(NCC(F)(F)F)c8)n7)c(C(F)F)n6)CC5)CC4)C3)cc2F)C(=O)N1 [Example 4, N-(3-(difluoromethyl)-1-((1r,4r)-4-((4-(1-(4-((R)-2,6-dioxopiperidin-3-yl)-3,5-difluorophenyl)azetidine-3-carbonyl)piperazin-1-yl)methyl)cyclohexyl)-1H-pyrazol-4-yl)-2-(2-((2,2,2-trifluoroethyl)amino)pyridin-4-yl)oxazole-4-carboxamide] | 95% | 6.2 nM |  |  | 6.2 nM | 95% |
